This is an account of results in ChEMBL document CHEMBL3991601, “The target landscape of clinical kinase drugs” (Science, 2017).

Calls of active or inactive are those of the source. Bounds are passed on as bounds.

The target of experiment [1] is T1, Signal recognition particle receptor subunit alpha (Homo sapiens, UniProt P08240).
T1 sequence (P08240 whole entry): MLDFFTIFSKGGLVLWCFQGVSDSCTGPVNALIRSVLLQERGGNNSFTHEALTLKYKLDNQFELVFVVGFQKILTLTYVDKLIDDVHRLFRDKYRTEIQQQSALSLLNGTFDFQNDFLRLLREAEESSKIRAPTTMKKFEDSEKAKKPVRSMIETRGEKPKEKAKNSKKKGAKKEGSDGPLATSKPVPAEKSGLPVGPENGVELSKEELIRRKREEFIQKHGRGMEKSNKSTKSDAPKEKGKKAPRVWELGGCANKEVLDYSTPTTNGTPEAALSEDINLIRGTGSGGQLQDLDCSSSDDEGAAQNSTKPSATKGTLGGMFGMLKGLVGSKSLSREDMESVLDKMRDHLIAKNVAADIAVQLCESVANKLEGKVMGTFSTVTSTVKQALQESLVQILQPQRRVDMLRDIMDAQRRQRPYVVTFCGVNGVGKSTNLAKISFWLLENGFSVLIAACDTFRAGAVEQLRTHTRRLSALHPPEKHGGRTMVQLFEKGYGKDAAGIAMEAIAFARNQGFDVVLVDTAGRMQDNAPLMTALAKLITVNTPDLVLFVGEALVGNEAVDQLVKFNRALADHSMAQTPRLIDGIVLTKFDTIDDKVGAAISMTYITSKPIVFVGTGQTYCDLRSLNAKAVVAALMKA

For experiment [2], the target named is T2, Ephrin type-B receptor 6 (Homo sapiens, UniProt O15197).
T2 sequence (O15197 whole entry): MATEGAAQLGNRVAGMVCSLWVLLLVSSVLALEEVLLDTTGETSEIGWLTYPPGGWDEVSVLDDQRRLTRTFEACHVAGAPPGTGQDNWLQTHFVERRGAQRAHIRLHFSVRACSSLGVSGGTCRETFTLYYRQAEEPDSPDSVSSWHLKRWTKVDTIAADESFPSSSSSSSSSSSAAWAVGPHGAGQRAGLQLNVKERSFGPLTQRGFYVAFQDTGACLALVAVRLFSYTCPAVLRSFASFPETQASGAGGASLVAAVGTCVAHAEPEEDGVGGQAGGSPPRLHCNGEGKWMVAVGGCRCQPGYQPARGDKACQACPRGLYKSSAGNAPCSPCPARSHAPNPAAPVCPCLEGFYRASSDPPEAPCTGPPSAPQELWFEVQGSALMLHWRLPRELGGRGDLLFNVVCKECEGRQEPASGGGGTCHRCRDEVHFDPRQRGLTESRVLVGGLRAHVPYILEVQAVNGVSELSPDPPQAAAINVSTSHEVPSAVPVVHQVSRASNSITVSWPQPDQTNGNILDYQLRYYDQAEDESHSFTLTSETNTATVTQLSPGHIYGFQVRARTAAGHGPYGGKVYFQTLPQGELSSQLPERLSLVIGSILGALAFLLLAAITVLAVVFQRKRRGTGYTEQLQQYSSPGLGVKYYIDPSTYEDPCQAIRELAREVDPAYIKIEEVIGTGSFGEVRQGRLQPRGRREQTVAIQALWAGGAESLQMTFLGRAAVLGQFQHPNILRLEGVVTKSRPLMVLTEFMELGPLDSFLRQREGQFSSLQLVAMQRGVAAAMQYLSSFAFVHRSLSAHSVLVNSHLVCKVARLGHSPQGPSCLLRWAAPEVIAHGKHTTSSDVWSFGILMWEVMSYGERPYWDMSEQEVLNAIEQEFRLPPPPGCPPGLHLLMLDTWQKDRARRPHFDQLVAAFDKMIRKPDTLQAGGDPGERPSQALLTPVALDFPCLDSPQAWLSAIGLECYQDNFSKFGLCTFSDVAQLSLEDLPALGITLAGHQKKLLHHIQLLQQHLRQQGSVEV

The target in experiment [3] is T3, Ras-related protein Rab-27A (Homo sapiens, UniProt P51159).
T3 sequence (P51159 whole entry): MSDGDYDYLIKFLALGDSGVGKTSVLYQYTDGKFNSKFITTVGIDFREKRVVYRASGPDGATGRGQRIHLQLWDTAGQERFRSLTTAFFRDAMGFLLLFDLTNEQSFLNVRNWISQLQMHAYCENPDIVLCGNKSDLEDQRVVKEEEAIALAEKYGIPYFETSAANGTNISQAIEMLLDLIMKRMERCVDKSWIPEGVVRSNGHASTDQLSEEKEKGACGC

Experiment [4] deals with Glycogen synthase kinase-3 alpha (Homo sapiens, UniProt P49840).
Chain of Glycogen synthase kinase-3 alpha (P49840 whole entry): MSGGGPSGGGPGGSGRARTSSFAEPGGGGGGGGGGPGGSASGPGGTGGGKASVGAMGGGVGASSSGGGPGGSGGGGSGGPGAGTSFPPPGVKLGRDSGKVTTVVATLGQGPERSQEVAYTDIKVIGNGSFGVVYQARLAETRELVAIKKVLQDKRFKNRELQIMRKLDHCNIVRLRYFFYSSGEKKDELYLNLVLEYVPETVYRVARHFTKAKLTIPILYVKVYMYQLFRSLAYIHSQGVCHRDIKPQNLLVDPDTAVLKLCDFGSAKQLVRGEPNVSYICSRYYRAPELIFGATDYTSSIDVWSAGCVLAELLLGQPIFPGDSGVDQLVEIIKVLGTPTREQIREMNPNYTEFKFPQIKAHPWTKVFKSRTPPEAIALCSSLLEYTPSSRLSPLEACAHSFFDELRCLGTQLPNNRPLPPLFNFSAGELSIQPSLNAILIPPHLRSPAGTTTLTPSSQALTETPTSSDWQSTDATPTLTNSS
The target in experiment [5] is Mitotic checkpoint serine/threonine-protein kinase BUB1 (Homo sapiens, UniProt O43683).
Chain of Mitotic checkpoint serine/threonine-protein kinase BUB1 (O43683 whole entry): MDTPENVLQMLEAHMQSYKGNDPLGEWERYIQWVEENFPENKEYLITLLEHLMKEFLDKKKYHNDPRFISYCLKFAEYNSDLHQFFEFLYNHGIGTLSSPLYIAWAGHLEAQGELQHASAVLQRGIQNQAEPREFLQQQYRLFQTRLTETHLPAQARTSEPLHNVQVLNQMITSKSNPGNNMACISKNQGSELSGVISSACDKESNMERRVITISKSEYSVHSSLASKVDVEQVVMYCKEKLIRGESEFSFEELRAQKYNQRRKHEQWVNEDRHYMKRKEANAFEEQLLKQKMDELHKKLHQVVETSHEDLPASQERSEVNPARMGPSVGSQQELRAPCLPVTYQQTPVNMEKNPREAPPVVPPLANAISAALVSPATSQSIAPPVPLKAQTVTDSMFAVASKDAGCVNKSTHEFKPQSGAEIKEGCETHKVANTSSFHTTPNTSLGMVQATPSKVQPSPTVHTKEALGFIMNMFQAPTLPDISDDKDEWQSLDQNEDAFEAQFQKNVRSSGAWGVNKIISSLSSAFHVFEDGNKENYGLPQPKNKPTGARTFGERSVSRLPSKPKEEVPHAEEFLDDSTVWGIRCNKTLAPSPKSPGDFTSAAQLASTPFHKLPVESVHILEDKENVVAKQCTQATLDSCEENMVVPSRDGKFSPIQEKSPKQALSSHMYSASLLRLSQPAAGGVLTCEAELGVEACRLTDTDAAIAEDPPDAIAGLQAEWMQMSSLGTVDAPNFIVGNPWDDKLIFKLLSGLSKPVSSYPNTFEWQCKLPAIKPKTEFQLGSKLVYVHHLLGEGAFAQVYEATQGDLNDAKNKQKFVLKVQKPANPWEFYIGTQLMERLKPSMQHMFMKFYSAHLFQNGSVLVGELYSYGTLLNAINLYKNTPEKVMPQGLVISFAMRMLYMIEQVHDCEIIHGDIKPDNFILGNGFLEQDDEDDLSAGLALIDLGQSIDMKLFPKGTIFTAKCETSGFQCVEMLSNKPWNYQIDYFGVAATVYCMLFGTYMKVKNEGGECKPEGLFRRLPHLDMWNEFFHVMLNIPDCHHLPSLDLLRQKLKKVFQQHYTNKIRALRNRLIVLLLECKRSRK
Experiment [6] addresses Cyclin-dependent kinase 1 (Homo sapiens, UniProt P06493).
Experiment [7] deals with Cyclin-dependent kinase 7 (Homo sapiens, UniProt P50613).
Chain of Cyclin-dependent kinase 7 (P50613 whole entry): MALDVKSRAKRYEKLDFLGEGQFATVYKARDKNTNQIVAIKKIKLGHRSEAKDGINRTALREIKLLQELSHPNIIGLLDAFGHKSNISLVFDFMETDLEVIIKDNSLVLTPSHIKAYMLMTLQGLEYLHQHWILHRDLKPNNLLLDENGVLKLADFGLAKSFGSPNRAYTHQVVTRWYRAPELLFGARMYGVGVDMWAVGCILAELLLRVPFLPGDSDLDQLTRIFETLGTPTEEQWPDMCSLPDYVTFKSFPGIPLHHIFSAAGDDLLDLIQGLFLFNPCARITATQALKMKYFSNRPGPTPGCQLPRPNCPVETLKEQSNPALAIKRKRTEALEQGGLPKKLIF
Experiment [8] deals with Non-receptor tyrosine-protein kinase TYK2 (Homo sapiens, UniProt P29597).
Chain of Non-receptor tyrosine-protein kinase TYK2 (P29597 whole entry): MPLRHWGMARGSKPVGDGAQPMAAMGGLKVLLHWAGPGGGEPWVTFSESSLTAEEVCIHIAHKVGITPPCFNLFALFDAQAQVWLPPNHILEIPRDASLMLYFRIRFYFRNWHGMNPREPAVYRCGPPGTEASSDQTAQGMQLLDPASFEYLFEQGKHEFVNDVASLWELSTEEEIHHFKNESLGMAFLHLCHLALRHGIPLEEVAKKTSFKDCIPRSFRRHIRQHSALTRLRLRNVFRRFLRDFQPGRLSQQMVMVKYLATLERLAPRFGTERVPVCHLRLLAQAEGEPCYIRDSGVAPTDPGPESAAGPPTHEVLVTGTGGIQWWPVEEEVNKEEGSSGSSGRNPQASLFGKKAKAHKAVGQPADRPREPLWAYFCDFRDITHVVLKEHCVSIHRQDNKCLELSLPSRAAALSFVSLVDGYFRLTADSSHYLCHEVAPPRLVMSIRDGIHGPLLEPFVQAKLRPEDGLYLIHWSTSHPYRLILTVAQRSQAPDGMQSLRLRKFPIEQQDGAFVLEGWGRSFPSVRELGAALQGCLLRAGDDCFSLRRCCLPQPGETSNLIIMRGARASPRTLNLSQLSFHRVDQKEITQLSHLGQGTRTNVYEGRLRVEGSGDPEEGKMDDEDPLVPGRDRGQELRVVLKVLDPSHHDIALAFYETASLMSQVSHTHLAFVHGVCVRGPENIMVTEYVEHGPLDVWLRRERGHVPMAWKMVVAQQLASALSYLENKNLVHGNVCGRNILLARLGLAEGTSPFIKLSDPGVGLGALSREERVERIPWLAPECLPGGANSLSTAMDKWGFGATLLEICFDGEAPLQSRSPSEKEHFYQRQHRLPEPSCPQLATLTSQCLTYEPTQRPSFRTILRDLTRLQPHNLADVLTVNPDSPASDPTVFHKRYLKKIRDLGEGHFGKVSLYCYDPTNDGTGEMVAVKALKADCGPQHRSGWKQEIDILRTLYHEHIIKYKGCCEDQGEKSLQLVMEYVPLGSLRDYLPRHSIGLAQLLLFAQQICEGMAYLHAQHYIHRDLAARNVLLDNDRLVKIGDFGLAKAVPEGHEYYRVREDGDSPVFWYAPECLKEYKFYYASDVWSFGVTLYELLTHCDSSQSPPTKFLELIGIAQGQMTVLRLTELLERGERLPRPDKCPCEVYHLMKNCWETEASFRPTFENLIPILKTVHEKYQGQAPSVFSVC
For experiment [9], the target named is Actin-related protein 2 (Homo sapiens, UniProt P61160).
The target in experiment [10] is T4, Cysteine--tRNA ligase, cytoplasmic (Homo sapiens, UniProt P49589).
T4 sequence (P49589 whole entry): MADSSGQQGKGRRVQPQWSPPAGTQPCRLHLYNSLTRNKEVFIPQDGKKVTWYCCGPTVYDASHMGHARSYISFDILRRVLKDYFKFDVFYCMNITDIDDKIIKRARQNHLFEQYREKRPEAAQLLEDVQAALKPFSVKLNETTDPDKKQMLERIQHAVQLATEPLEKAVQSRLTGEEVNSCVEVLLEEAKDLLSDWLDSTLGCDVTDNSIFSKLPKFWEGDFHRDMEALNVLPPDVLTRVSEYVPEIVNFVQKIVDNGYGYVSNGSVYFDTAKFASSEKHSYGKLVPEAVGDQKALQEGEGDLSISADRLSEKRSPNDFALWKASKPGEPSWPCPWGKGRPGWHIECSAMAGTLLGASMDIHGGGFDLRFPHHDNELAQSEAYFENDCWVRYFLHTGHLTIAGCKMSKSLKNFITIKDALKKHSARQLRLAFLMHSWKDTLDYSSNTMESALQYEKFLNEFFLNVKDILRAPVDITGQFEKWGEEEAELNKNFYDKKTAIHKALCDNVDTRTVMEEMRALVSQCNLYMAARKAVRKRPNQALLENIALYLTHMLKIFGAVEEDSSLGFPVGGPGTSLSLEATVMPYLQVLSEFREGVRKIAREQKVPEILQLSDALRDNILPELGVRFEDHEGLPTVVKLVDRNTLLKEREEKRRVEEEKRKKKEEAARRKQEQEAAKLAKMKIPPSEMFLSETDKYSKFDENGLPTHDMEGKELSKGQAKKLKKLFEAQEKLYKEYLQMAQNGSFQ
Note: in the data inactive means no Kd found up to 30 µM.

Chain of Cyclin-dependent kinase 1 (P06493 whole entry): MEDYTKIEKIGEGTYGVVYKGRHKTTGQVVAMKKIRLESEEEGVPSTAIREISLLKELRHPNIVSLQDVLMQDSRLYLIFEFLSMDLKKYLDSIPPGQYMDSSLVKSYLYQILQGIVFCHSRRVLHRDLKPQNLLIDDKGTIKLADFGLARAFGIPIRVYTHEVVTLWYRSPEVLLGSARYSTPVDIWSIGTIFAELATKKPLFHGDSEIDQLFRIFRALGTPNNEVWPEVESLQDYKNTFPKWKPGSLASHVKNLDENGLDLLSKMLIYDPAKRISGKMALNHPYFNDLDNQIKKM

As a reminder, the Kd is the free concentration of one partner at which half of the binding sites on the other are occupied at equilibrium, for simple one-to-one binding. Consider `CC[C@@H]1C(=O)N(C)c2cnc(Nc3ccc(C(=O)N[C@H]4CC[C@H](N5CCN(CC6CC6)CC5)CC4)cc3OC)nc2N1C(C)C` [VOLASERTIB], for which the Kd in [1], in experiment [2], in [3], in [4], in experiment [5] and in [6] was > 30 µM (inactive) in each case. Further, the Kd in [7], in [8], in experiment [9] and in experiment [10] was > 30 µM (inactive) each time.

As to `Cc1ccc(S(=O)(=O)Nc2nc3ccccc3nc2Nc2ccc3nsnc3c2)cc1`, the Kd in experiment [1], in experiment [2], in experiment [3], in experiment [4], in experiment [5] and in [6] was > 30 µM (inactive) each time. Moreover, the Kd in experiment [7], in [8], in [9] and in [10] was > 30 µM (inactive) throughout.

For the compound `COc1cc(OC)c(/C=C/S(=O)(=O)Cc2ccc(OC)c(NCC(=O)O)c2)c(OC)c1` [RIGOSERTIB], the Kd in experiment [1], in experiment [2], in experiment [3], in [4], in experiment [5] and in [6] was > 30 µM (inactive) in each case. The Kd in experiment [7], in experiment [8], in experiment [9] and in experiment [10] was > 30 µM (inactive) each time.

As for `CCn1c(=O)c(-c2cc[nH]n2)cc2c(C)nc(N)nc21` [VOXTALISIB], the Kd in [1], in experiment [2], in experiment [3], in experiment [4], in experiment [5] and in experiment [6] was > 30 µM (inactive) throughout. The Kd in [7], in experiment [8], in [9] and in experiment [10] was > 30 µM (inactive) each time.

Regarding `CO[C@H]1C[C@@H]2CC[C@@H](C)[C@@](O)(O2)C(=O)C(=O)N2CCCC[C@H]2C(=O)O[C@H]([C@H](C)C[C@@H]2CC[C@@H](OCCO)[C@H](OC)C2)CC(=O)[C@H](C)/C=C(\C)[C@@H](O)[C@@H](OC)C(=O)[C@H](C)C[C@H](C)/C=C/C=C/C=C/1C` [EVEROLIMUS], the Kd in experiment [1], in experiment [2], in experiment [3], in experiment [4], in experiment [5] and in experiment [6] was > 30 µM (inactive) throughout. Also, the Kd in [7], in experiment [8], in [9] and in experiment [10] was > 30 µM (inactive) throughout.

Take `O=C(Nc1ccc(-c2ccnc(Nc3ccc(N4CCOCC4)cc3)n2)cc1)C1CCCN1` (stereo unspecified) [XL-019]: the Kd was > 30 µM (inactive) in experiment [1]; > 30 µM (inactive) in experiment [2]; > 30 µM (inactive) in [3]; > 30 µM (inactive) in experiment [4]; 0.39 µM (active) in experiment [5]; > 30 µM (inactive) in experiment [6]. In addition, the Kd in experiment [7], in experiment [8], in [9] and in [10] was > 30 µM (inactive) in each case.

Take `CCS(=O)(=O)N1CC(CC#N)(n2cc(-c3ncnc4[nH]ccc34)cn2)C1` [BARICITINIB]: the Kd in experiment [1], in experiment [2], in experiment [3], in experiment [4], in [6] and in experiment [7] was > 30 µM (inactive) in each case. Moreover, the Kd in experiment [8], in experiment [9] and in experiment [10] was > 30 µM (inactive) each time.

As for `COc1cc(CCc2cc(NC(=O)c3ccc(N4C[C@@H](C)N[C@@H](C)C4)cc3)n[nH]2)cc(OC)c1` [AZD-4547], the Kd in experiment [1], in [2], in [4], in experiment [5], in [6] and in experiment [7] was > 30 µM (inactive) in each case. Also, the Kd in experiment [8], in experiment [9] and in experiment [10] was > 30 µM (inactive) throughout.

For `C[C@@H](c1ccc2nccn2c1)n1nnc2ncc(-c3cnn(C)c3)nc21` [SAVOLITINIB], the Kd in experiment [1], in experiment [2], in experiment [3], in experiment [4], in [6] and in experiment [7] was > 30 µM (inactive) in each case. Also, the Kd in experiment [8], in [9] and in experiment [10] was > 30 µM (inactive) throughout.

Turning to `CN(C)C(=O)c1cc2cnc(Nc3ccc(N4CCNCC4)cn3)nc2n1C1CCCC1` [RIBOCICLIB], the Kd in [1], in [2], in experiment [3], in [4], in experiment [5] and in experiment [7] was > 30 µM (inactive) throughout. The Kd in experiment [8], in experiment [9] and in experiment [10] was > 30 µM (inactive) throughout.
